Measurements as given in US20120283216A1, “FUNGICIDAL 2-(BICYCLIC ARYLOXY)CARBOXAMIDES” (priority 2009, published 2012).

Experiments:
Assay type in all cases: in vivo
Botrytis cinerea = experiment: Test C: tomato botrytis, preventive spray on tomato seedlings, visual disease rating; conditions: preventive spray at 40 ppm, rated after 48 h + 3 days; for pest or weed control at 40 ppm: Botrytis cinerea, 120 h, read-out: Test C disease control rating (100 = 100% disease control, 0 = no disease control relative to the controls)
Procedure, shortened: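 Compounds applied at 40 ppm (≈800 g/ha) in acetone/water with surfactant, sprayed to run-off on tomato seedlings. Inoculated next day with B. cinerea spores; 48 h saturated humidity at 20 °C, then 3 days at 27 °C. Visual rating as % disease control versus untreated controls.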

Septoria tritici = experiment: Test B: wheat leaf blotch, preventive spray on wheat seedlings, visual disease rating; conditions: preventive spray at 40 ppm, rated after 48 h + 19 days; for pest or weed control at 40 ppm: Zymoseptoria tritici, 504 h, read-out: Test B disease control rating (100 = 100% disease control, 0 = no disease control relative to the controls)
Procedure, shortened: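 Wheat seedlings were sprayed to run-off with 40 ppm compound (≈800 g/ha) in acetone/water with 250 ppm surfactant, then inoculated with Septoria tritici spores the next day. After 48 h saturated humidity at 20° C and 19 days in a growth chamber at 20° C, disease control was rated visually (0–100% vs controls).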

[1] = test system: Blumeria graminis f. sp. tritici; experiment: Test A: wheat powdery mildew, preventive spray on wheat seedlings, visual disease rating; conditions: preventive spray at 40 ppm, rated 8 days after inoculation; for pest or weed control at 40 ppm: Blumeria graminis, 192 h, read-out: Test A disease control rating (100 = 100% disease control, 0 = no disease control relative to the controls)
Procedure, shortened: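 Wheat seedlings sprayed to run-off with 40 ppm compound (equivalent to 800 g/ha) in acetone/water with 250 ppm surfactant, then dusted with B. graminis spores next day. Held at 20° C. for 8 days before visual rating, 0–100 scale as % disease control relative to controls.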

Compound | Test C disease control rating (100 = 100% disease control, 0 = no disease control relative to the controls) (Botrytis cinerea) | Test B disease control rating (100 = 100% disease control, 0 = no disease control relative to the controls) (Septoria tritici) | Test A disease control rating (100 = 100% disease control, 0 = no disease control relative to the controls) [1] | pest or weed control at 40 ppm (Botrytis cinerea) | pest or weed control at 40 ppm (Septoria tritici) | pest or weed control at 40 ppm [1]
C#Cc1ccc2ncc(OC(CC)C(=O)NCC(C)(C)C)cc2c1 (stereo not drawn) [Compound 153] | 93% | 92% | 0% |  |  | 
COCC(C)(C)NC(=O)C(OC)Oc1cnc2ccc(Br)cc2c1 (stereo not drawn) [Compound 154] | 94% | 99% | 91% |  |  | 
CC#Cc1ccc2ncc(OC(OC)C(=O)NC(C)(C)C)cc2c1 (stereo not drawn) [Compound 156, N-(1,1-dimethylethyl)-2-methoxy-2-[[6-(1-propyn-1-yl)-3-quinolinyl]oxy]-acetamide] |  |  |  | 99% | 96% | 98%
CC#Cc1ccc2ncc(OC(OC)C(=O)NC(C)(C)COC)cc2c1 (stereo not drawn) [Compound 158] | 99% | 38% | 98% |  |  | 
CCC(Oc1ccc2ccc(C)cc2c1)C(=O)NC(C)(C)COC (stereo not drawn) [Compound 159, N-(2-methoxy-1,1-dimethylethyl)-2-[(7-methyl-2-naphthalenyl)oxy]-butanamide] |  |  |  | 99% | 13% | 99%
COCC(C)(C)NC(=O)C(OC)Oc1cnc2ccc(C#C[Si](C)(C)C)cc2c1 (stereo not drawn) [Compound 160] | 97% | 99% | 69% |  |  | 
COC(Oc1cnc2ccc(C#C[Si](C)(C)C)cc2c1)C(=O)NC(C)(C)C (stereo not drawn) [Compound 161] | 99% | 100% | 0% |  |  | 
C#Cc1ccc2ncc(OC(OC)C(=O)NC(C)(C)COC)cc2c1 (stereo not drawn) [Compound 162] | 100% | 100% | 100% |  |  | 
C#Cc1ccc2ncc(OC(OC)C(=O)NC(C)(C)C)cc2c1 (stereo not drawn) [Compound 163] | 100% | 100% | 99% |  |  | 
C#CC(C)(C)NC(=S)C(CC)Oc1ccc2ccc(OC)cc2c1 (stereo not drawn) [Compound 164] |  |  |  | 99% | 97% | 0%
CCC(Oc1ccc2ccc(OC)cc2c1)C(=O)N(C)C(C)(C)C (stereo not drawn) [Compound 166] |  |  |  | 99% | 46% | 0%
CCC(Oc1ccc2ccc(OC)cc2c1)C(=O)N(CC)C(C)(C)C (stereo not drawn) [Compound 167] |  |  |  | 68% | 64% | 0%
